From BigSolDB 2.1

Conditions: in chloroform

For `Brc1sc(Br)c(Br)c1Br`, the solubility (mole fraction) (278.15 K) was 0.0198, the solubility (mole fraction) (282.15 K) was 0.0231 and the solubility (mole fraction) (286.15 K) was 0.0265. For the same molecule, the solubility (mole fraction) (290.15 K) was 0.0304, the solubility (mole fraction) (294.15 K) was 0.0349 and the solubility (mole fraction) (298.15 K) was 0.0401. For the same molecule, the solubility (mole fraction) (302.15 K) was 0.0458, the solubility (mole fraction) (306.15 K) was 0.0517 and the solubility (mole fraction) (310.15 K) was 0.0588. It also gave a solubility (mole fraction) (314.15 K) of 0.066, a solubility (mole fraction) (318.15 K) of 0.0745 and a solubility (mole fraction) (322.15 K) of 0.0828.
